Data as given in ChEMBL document CHEMBL1201862, “PubChem BioAssay data set” (2004).
Calls of active or inactive are those of the source.

Columns and labels:
[1] = target: 14-3-3 protein gamma (Homo sapiens, UniProt P61981); assay: modulators of 14-3-3 gamma client binding – dose response (AID 711); type: functional
[2] = Luminescent dose response cell-based high throughput screening assay for inhibitors of the Janus kinase 2 mutant JAK2V617F. [Related pubchem assays: 1446 (Primary screen.), 1521 (Confirmation assay.), 1486 (Counter screen.)]; type: functional
[3] = target: Solute carrier family 12 member 2/member 5 (Homo sapiens, UniProt P55011+Q9H2X9); assay: KCC2 and NKCC1 inhibition by rubidium flux, cell-based, NKCC1 counter-screen (AID 1734); type: functional, HEK293
[4] = HeLa cell cytotoxicity, dose response, cytotoxicity control for MgcRacGAP inhibitor project (AID 624300); type: functional
[5] = target: Cytochrome P450 2D6 (Homo sapiens, UniProt P10635);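 further: CYP2D6 member of a cytochrome P450 panel assay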
[6] = target: T1, Mannose-6-phosphate isomerase (Homo sapiens, UniProt P34949); assay: inhibitors of human PMI, primary screen, biochemical, fluorescence intensity, coupled assay (AID 1209)
T1 sequence (P34949 whole entry): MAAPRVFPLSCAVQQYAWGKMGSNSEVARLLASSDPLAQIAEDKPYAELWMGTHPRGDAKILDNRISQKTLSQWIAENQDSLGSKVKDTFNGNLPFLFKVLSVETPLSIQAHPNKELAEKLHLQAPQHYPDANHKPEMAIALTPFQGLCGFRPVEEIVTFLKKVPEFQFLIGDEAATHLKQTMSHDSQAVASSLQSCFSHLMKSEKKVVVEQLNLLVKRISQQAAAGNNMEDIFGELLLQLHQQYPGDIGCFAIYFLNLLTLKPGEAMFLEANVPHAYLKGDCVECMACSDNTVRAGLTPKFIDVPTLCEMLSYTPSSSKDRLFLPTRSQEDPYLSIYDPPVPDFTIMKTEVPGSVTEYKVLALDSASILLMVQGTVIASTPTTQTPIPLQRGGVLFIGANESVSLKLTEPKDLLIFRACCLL

[7] = target: Nonstructural protein 1 (Influenza A virus, UniProt Q194T2); type: functional, Influenza A virus (A/California/07/2009(H1N1))
[8] = target: T2, Rac GTPase-activating protein 1 (Homo sapiens, UniProt Q9H0H5); assay: MgcRacGAP GTPase-activating activity inhibitors, confirmation, biochemical, ADP Hunter fluorescence, primary and confirmatory (AID 624330); type: functional
T2 sequence (Q9H0H5 whole entry): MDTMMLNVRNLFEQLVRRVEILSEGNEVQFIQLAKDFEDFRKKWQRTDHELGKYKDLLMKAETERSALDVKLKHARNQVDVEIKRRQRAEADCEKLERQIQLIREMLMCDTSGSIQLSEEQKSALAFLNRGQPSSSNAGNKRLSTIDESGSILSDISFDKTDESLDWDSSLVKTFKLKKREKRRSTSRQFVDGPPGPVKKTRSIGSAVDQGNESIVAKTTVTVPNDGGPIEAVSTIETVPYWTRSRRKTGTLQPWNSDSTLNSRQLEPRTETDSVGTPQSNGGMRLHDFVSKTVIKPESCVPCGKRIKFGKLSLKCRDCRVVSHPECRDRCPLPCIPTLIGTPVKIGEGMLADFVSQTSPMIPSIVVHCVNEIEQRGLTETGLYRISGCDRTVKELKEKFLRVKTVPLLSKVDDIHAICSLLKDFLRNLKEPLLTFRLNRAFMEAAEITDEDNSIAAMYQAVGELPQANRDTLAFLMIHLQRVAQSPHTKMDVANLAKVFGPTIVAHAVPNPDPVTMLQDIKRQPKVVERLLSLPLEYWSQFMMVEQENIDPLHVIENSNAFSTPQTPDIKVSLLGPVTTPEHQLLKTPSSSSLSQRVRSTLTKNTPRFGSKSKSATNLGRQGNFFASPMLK

[9] = target: T3, Kappa-type opioid receptor (Homo sapiens, UniProt P41145); type: functional
[10] = target: Beta Lactamase (Pseudomonas aeruginosa, UniProt Q932Y6); assay: beta-lactamase reporter inhibitor potency, dose response, artefact control for NOD2-RIPK2 interaction inhibitor project, BLA reporter cells, FRET fluorescence (AID 651552); type: functional, cell-based
[11] = Fluorescence-based cell-based high throughput dose response assay for inhibitors of the interaction of nucleotide-binding oligomerization domain containing 2 (NOD2) and the receptor-interacting serine-threonine kinase 2 (RIPK2).; type: functional; conditions: Homo sapiens
[12] = target: T3, Kappa-type opioid receptor; type: functional; remark: listed apart in the source
[13] = target: T4, Microphthalmia-associated transcription factor (Homo sapiens, UniProt O75030); assay: TRPM1 promoter luciferase signal decrease, dose response, MITF inhibitor project, cell-based, SK-MEL-5, cherry-picked, set 3 (AID 493073); type: functional
T4 sequence (O75030 whole entry): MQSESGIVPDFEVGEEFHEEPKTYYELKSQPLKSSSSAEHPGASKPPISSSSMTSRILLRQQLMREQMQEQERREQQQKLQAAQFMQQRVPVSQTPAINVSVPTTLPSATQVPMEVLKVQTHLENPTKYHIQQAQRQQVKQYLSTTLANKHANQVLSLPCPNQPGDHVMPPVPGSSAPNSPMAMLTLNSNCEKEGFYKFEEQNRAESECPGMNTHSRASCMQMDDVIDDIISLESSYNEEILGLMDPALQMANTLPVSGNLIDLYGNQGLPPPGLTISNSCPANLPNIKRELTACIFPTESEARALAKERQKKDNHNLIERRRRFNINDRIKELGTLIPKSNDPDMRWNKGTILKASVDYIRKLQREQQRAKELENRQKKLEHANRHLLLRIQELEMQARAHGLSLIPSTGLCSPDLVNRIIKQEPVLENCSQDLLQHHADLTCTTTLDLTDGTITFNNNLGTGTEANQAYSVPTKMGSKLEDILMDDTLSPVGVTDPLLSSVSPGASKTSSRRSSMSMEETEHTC

[14] = target: Neuropeptide Y receptor type 2 (Homo sapiens, UniProt P49146); type: functional, cell-based;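 further: HEK293 cells expressing the receptor and a CNG channel; stimulus was NPY near EC95 followed by isoproterenol to raise cAMP; antagonist potency measured as restoring cAMP signal that NPY suppresses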
[15] = target: Neuropeptide Y receptor type 1 (Homo sapiens, UniProt P25929); type: functional;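 further: HEK293 cells with a CNG channel challenged with NPY then isoproterenol; potency as antagonist that reverses NPY suppression of cAMP signal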
[16] = target: Beta-galactosidase (Escherichia coli, UniProt Q8VNN2); type: functional
[17] = target: 5-hydroxytryptamine receptor 1E (Homo sapiens, UniProt P28566); assay: Counterscreen assay for S1P3 antagonists: Dose response cell-based high throughput screening assay to identify antagonists of the 5-Hydroxytryptamine Receptor Subtype 1E (5HT1E). [Related pubchem assays: 1429, 485 ]; type: functional
[18] = target: Sphingosine 1-phosphate receptor 3 (Homo sapiens, UniProt Q99500); assay: Dose response cell-based high throughput screening assay for antagonists of the Sphingosine 1-Phosphate Receptor 3 (S1P3). [Related pubchem assays: 1429, 485 ]; type: functional
[19] = target: T5, Estrogen receptor (Homo sapiens, UniProt P03372); assay: potentiators of ERα–SRC-1 coactivator binding, dose response, biochemical, TR-FRET, ERα LBD (AID 737)
T5 sequence (P03372 whole entry): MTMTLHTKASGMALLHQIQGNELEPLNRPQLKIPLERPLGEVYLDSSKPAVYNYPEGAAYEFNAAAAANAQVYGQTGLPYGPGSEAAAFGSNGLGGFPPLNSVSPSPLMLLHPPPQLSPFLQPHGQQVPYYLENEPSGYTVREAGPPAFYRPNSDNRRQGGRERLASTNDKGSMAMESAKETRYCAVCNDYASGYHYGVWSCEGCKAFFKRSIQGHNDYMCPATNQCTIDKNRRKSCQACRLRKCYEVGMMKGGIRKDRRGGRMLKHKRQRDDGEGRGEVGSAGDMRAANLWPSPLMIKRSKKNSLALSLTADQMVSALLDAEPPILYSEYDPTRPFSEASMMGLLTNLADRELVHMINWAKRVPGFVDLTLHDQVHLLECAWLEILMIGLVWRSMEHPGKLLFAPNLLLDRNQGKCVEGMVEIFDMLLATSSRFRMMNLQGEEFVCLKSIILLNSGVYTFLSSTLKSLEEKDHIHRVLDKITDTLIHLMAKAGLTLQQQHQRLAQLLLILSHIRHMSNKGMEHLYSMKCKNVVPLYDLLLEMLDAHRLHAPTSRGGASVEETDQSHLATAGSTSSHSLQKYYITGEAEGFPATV

[20] = M. tuberculosis H37Rv growth inhibitors, H37Rv strain (AID 1626); type: functional

T3 sequence (P41145 whole entry): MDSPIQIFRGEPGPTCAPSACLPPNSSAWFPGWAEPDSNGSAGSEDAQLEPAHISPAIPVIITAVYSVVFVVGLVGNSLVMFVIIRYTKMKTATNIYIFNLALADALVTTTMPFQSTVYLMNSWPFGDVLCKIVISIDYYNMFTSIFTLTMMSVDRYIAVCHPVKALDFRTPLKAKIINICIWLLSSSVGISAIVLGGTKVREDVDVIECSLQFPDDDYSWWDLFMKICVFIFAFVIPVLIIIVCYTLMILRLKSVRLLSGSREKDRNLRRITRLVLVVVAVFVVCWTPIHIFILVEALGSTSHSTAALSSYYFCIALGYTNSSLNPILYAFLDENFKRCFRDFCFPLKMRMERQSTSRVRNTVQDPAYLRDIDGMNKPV
Chain of Cytochrome P450 2D6 (P10635 whole entry): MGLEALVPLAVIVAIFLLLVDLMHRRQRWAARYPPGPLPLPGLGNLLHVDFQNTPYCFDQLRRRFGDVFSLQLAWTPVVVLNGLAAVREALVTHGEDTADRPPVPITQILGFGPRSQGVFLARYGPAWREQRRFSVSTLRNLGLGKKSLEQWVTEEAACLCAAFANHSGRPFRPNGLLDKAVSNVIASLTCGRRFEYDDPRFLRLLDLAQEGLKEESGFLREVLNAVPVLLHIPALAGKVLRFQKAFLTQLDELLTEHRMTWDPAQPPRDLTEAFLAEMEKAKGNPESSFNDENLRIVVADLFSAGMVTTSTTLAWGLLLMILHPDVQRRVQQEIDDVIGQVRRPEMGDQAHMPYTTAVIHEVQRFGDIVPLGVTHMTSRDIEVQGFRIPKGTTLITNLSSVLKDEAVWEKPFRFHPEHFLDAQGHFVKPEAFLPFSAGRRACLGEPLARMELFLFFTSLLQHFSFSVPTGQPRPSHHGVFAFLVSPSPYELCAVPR
Chain of Neuropeptide Y receptor type 2 (P49146 whole entry): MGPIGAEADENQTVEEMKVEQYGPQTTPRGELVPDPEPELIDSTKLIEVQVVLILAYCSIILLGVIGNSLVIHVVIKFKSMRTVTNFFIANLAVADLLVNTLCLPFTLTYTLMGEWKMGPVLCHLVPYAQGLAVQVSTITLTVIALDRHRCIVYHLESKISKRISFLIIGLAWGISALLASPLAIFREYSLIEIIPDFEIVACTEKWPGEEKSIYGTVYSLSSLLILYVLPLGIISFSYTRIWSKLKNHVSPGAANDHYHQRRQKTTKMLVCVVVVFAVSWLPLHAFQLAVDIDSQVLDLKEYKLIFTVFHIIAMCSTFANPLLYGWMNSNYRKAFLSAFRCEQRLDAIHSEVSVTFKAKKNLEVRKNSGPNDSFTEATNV
Chain of Sphingosine 1-phosphate receptor 3 (Q99500 whole entry, the tested form may be a part): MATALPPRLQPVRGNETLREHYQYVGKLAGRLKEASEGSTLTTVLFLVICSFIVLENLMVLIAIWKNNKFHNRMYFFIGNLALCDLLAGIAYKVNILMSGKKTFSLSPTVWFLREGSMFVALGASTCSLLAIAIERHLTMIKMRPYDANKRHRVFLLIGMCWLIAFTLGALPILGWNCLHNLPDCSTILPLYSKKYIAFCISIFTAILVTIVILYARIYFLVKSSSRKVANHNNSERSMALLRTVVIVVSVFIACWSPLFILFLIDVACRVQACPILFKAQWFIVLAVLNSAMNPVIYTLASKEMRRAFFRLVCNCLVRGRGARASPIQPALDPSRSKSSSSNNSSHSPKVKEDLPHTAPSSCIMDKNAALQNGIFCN
Chain of Beta Lactamase (Q932Y6 whole entry, the tested form may be a part): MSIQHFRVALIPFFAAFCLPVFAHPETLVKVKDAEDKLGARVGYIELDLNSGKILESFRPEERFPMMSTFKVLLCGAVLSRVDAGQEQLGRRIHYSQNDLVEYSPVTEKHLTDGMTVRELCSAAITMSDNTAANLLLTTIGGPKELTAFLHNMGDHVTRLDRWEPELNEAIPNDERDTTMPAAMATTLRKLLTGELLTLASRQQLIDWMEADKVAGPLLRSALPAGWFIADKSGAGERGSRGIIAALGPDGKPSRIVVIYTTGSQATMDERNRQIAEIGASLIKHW
Chain of Beta-galactosidase (Q8VNN2 whole entry): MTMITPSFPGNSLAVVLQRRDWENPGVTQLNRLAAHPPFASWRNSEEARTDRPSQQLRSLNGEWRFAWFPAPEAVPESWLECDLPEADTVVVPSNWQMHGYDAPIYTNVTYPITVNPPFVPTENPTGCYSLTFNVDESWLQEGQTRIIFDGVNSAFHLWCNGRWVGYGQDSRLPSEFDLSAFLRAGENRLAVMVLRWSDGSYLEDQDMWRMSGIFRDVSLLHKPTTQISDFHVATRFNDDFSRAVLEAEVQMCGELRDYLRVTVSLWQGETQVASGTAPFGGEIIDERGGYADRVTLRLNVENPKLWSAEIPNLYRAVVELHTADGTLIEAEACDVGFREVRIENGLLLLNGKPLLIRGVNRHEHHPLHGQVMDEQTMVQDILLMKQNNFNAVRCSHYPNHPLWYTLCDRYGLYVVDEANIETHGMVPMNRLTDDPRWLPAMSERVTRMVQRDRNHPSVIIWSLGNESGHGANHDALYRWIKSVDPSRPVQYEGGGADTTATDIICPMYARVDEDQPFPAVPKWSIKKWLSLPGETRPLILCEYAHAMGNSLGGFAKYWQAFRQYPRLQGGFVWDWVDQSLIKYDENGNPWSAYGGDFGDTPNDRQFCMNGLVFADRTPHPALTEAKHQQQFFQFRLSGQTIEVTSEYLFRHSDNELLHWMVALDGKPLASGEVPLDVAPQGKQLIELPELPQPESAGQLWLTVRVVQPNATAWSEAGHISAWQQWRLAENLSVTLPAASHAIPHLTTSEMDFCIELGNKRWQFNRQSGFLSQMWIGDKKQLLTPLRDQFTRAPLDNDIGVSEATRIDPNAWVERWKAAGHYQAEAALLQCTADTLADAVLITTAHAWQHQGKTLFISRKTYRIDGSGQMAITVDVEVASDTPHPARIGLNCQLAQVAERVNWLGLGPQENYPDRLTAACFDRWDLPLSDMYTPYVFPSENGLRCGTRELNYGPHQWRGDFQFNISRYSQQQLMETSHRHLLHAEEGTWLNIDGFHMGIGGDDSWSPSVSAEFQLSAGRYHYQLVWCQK
Chain of Nonstructural protein 1 (Q194T2 whole entry): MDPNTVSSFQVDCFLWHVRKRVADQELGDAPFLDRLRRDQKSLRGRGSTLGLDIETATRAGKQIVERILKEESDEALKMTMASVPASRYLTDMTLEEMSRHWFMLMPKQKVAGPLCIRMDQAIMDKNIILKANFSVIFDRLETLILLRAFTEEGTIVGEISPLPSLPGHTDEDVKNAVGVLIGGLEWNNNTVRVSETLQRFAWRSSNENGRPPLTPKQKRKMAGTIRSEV
Chain of 5-hydroxytryptamine receptor 1E (P28566 whole entry): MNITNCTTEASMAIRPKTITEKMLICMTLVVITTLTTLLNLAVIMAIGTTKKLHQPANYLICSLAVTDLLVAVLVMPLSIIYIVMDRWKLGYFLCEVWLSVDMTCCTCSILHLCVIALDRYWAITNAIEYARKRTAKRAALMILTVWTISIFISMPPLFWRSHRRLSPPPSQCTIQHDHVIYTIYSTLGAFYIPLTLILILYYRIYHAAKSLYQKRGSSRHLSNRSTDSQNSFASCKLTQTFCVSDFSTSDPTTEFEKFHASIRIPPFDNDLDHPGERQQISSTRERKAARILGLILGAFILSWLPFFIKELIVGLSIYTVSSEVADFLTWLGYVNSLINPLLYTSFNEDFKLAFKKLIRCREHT
Chain of Neuropeptide Y receptor type 1 (P25929 whole entry): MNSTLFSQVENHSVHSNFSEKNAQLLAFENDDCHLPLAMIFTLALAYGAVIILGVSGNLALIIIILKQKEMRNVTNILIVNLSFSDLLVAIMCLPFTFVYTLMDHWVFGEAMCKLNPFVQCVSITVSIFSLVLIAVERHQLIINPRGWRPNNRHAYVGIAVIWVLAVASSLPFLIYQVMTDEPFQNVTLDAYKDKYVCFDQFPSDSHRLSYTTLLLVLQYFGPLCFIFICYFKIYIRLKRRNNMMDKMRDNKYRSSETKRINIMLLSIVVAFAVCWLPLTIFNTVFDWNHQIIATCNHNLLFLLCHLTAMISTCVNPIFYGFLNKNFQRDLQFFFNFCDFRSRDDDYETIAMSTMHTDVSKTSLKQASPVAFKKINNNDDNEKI
Chain of 14-3-3 protein gamma (P61981 whole entry): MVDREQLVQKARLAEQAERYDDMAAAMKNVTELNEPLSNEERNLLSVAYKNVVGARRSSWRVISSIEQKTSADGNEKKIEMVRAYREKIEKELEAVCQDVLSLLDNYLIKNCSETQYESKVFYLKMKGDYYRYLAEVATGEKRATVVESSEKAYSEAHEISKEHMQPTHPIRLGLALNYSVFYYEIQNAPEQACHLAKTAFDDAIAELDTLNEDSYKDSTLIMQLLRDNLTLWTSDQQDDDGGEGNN

COc1ccc(C(=O)Oc2ccc(C(C)=O)cc2)c(OC)c1
IC50 [1]: > 50 µM (not active)

COc1ccc(-c2cnc3c(c2)CCC3(C#N)C#N)cc1
IC50 [2]: 0.768 µM (active)

O=C(Cn1cnc2c(nnn2Cc2ccccc2)c1=O)N1CCCc2ccccc21
IC50 [3]: 6 µM (active)

CC(C)/N=c1\scc(-c2ccco2)n1/N=C/c1ccc(O)c(O)c1
CC50 [4]: 99.4 µM (active) | AC50 [5]: 14.1 µM (inconclusive) | IC50 [6]: > 50 µM (not active) | IC50 [7]: 39.3 µM (active) | IC50 [8]: 56.3 µM (active)

N#CC(C#N)=C1C=CC=CN1/C(=C\c1ccco1)C(=O)c1ccc(Cl)cc1
CC50 [4]: 100 µM (active) | IC50 [9]: 3.64 µM (active) | IC50 [10]: 45.9 µM (inactive) | IC50 [11]: 1.13 µM (active) | IC50 [12]: 16.5 µM | IC50 [8]: 121 µM (active) | AC50 [13]: 6.85 µM (active) | IC50 [14]: 3.06 µM (active) | IC50 [15]: 4.08 µM (active) | EC50 [16]: > 31.5 µM (inactive)

Cc1ccccc1C(=O)N1CCN(c2ccc(NC(=O)c3ccc4c(c3)OCO4)cc2)CC1
IC50 [17]: 13.7 µM (not active) | IC50 [18]: > 50 µM (not active)

CCOC(=O)c1cc2c(c(CSc3nc4ccccc4c(=O)n3Cc3ccco3)c1)OCOC2
EC50 [19]: 3.27 µM (active)

CCOC(=O)c1ccc(NC(=O)Cn2cccc2)cc1
IC50 [20]: > 100 µM (active)
